Six compounds from ChEMBL document CHEMBL5113457, “Withaferin A, a polyfunctional pharmacophore that includes covalent engagement of IPO5, is an inhibitor of influenza A replication” (Bioorg Med Chem, 2022) can be followed below.

In series [1] the target is T1, Importin-5 (Homo sapiens) (UniProt O00410).
T1 sequence (whole entry): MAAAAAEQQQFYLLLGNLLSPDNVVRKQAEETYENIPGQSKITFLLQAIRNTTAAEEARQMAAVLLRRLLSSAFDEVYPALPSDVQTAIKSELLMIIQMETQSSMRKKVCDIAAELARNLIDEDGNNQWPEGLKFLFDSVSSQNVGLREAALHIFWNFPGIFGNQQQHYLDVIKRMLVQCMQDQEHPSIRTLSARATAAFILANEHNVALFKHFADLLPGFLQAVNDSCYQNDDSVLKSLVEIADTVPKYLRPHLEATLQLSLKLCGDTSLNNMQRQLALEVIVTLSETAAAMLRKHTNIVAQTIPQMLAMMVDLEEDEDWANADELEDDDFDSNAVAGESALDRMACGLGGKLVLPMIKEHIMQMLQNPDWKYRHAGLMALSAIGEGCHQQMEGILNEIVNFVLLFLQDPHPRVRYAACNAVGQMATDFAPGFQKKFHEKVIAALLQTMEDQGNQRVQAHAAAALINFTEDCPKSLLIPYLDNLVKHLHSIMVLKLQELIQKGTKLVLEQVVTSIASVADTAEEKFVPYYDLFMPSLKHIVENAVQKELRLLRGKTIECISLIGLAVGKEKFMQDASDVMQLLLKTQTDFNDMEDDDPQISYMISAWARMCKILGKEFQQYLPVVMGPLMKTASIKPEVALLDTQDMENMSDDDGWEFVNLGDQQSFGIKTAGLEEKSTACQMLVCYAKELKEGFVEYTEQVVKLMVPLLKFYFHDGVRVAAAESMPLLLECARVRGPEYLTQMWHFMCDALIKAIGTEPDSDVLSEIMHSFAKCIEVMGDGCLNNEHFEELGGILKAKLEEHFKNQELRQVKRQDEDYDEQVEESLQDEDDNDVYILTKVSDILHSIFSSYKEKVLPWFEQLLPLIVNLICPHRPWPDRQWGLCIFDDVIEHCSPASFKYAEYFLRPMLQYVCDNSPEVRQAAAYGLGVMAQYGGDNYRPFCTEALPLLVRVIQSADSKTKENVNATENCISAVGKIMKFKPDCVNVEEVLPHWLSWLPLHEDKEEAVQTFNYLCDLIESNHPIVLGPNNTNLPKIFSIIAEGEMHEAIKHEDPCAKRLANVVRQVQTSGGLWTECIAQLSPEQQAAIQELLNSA
As to the kind of experiment: Binding affinity to human IPO5 in human PC-3 cell lysate incubated for 30 mins by DTB-Cy3 dye based pull down analysis. In kind it is subcellular.

In series [2] the target is Vimentin (Homo sapiens) (UniProt P08670). As to the kind of experiment: Competitive binding affinity to human Vimentin in human PC-3 cell lysate at 10 uM for 30 mins followed by WA-P2 treatment for 30 mins by SDS gel Cy3 fluorescence based MS/MS analysis. In kind it is subcellular. The settings on record: time 60.0 min.
The test system of series [3] is Influenza A virus. As to the kind of experiment: Antiviral activity against Influenza A virus strain A/Netherlands/604/2009 infected in human A549 cells assessed as reduction in influenza virus nucleoprotein production at 1 to 10 uM preincubated for 40 mins followed by virus infection and measured after 4 to 6 hrs by Western blot analysis. In kind it is functional, organism-based. The note with it: dose 1-10 µM, time 280-400 min. (In general: A western blot detects proteins with antibodies after separation by electrophoresis.)

Series [4] deals with A549. As to the kind of experiment: Cytotoxicity against human A549 cells assessed as reduction in cell viability at 1 uM for 10 hrs by Hoechst 33342 staining based fluorescence microscopy. The series is classed as toxicity. The note with it: a549, 10 h.
The subject of series [5] is A549. As to the kind of experiment: Upregulation of HO-1 expression in human A549 cells at 1 uM for 2 to 6 hrs by western blot analysis. In kind it is functional, cell-based. The settings on record: time 2-6 hrs.
Series [6] has as its system Influenza A virus. As to the kind of experiment: Antiviral activity against Influenza A virus strain A/Netherlands/604/2009 infected in human A549 cells assessed as reduction in influenza virus nucleoprotein production at 1 uM preincubated for 40 mins followed by virus infection and measured after 4 to 6 hrs by Western blot analysis. The note with it: time 280-400 min. The series is classed as functional, organism-based.

The target of series [7] is Annexin A2 (Homo sapiens) (UniProt P07355). As to the kind of experiment: Competitive binding affinity to human annexin A2 in human A549 cell lysate at 10 uM for 30 mins followed by GOYA-P treatment for 30 mins by DTB-Cy3 dye based SDS-PAGE analysis. The settings on record: time 60.0 min. In kind it is subcellular.
Series [8] concerns Influenza A virus. As to the kind of experiment: Antiviral activity against Influenza A virus strain A/Netherlands/604/2009 infected in human A549 cells assessed as reduction in influenza virus nucleoprotein production at 2.5 uM preincubated for 40 mins followed by virus infection and measured after 4 to 6 hrs by Western blot analysis. The series is classed as functional, organism-based. The note with it: time 280-400 min.

Series [9] deals with Influenza A virus. As to the kind of experiment: Antiviral activity against drug treated Influenza A virus strain A/Netherlands/604/2009 cell lysate infected in dog MDCK cells assessed as reduction in viral replication at 500 nM and measured after 8 hr by crystal violet staining based plaque assay. In kind it is functional, organism-based.
The target of series [10] is Vimentin (Homo sapiens) (UniProt P08670). As to the kind of experiment: Competitive binding affinity to human Vimentin in human PC-3 cell lysate at 10 uM for 30 mins followed by WA-P1 treatment for 30 mins by SDS gel Cy3 fluorescence based MS/MS analysis. In kind it is subcellular. The settings on record: time 60.0 min.
Series [11] has as its target T1, Importin-5 (Homo sapiens). As to the kind of experiment: Competitive binding affinity to human IPO5 in human PC-3 cell lysate at 10 uM for 30 mins followed by GOYA-P treatment for 30 mins by DTB-Cy3 dye based pull-down assay. In kind it is subcellular. The note with it: time 60.0 min.
Series [12] concerns Influenza A virus. As to the kind of experiment: Antiviral activity against drug treated Influenza A virus strain A/Netherlands/604/2009 cell lysate infected in dog MDCK cells assessed as reduction in viral replication at 1 uM and measured after 8 hr by crystal violet staining based plaque assay. In kind it is functional, organism-based.
The target of series [13] is T1, Importin-5 (Homo sapiens). As to the kind of experiment: Competitive binding affinity to human IPO5 in human PC-3 cell lysate at 10 uM for 30 mins followed by GOYA-P treatment for 30 mins by DTB-Cy3 dye based SDS-PAGE analysis. In kind it is subcellular. The note with it: time 60.0 min.
The target in series [14] is T1, Importin-5 (Homo sapiens). As to the kind of experiment: Binding affinity to human IPO5 in human PC-3 cell lysate assessed as inhibition of IPO5 interaction with NLS PB1 cargo protein from Influenza A virus at 10 uM for 30 mins by pull-down assay. The series is classed as subcellular.
The target of series [15] is Heat shock protein HSP90 (Homo sapiens) (UniProt P07900+P08238). As to the kind of experiment: Binding affinity to recombinant human HSP90 at 10 uM by Western blotting based pull-down assay. The series is classed as protein assay.

Molecules are shown by their SMILES. Activity calls are given as the source filed them. The rule behind the calls is not given here.

Chain of Annexin A2 (Homo sapiens) (P07355 whole entry): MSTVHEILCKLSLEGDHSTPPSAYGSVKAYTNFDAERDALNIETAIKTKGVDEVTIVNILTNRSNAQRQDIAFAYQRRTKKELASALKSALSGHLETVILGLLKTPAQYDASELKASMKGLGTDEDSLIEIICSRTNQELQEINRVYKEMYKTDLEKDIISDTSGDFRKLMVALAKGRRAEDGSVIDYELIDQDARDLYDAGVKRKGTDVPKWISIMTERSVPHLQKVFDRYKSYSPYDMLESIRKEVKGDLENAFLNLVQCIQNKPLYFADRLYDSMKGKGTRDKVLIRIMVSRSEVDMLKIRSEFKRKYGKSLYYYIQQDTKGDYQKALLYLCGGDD
Chain of Vimentin (Homo sapiens) (P08670 whole entry): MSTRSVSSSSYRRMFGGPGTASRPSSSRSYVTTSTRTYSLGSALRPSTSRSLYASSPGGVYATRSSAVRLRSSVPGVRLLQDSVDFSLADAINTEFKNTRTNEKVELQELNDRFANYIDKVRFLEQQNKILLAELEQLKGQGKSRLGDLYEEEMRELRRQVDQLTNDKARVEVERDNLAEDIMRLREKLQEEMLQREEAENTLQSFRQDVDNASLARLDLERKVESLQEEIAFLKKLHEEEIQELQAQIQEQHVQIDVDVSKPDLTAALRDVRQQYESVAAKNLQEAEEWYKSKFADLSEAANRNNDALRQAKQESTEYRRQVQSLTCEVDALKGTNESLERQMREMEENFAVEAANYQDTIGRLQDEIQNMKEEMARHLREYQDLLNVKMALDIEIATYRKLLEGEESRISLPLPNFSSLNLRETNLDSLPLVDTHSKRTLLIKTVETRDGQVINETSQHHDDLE

As to `C#CCOCC(=C)C(=O)O[C@H]1C[C@@]2(C)OC(=CC2=O)/C(CO)=C\[C@H]2OC(=O)C(=C)[C@H]12`, the result in series [1] was Active.

As to `CC1=C(CO)C(=O)O[C@@H]([C@@H](C)[C@H]2CC[C@H]3[C@@H]4C[C@H]5O[C@]56[C@@H](O)C=CC(=O)[C@]6(CO)[C@H]4CC[C@]23C)C1`, the result in series [2], in [3], in series [5], in [6], in series [7] and in series [8] was Active. Further, the outcome in series [9], in series [10], in series [11], in series [12], in series [13] and in [14] was Active. Further, the Activity result in series [4] is “Non-Toxic”.

For the compound `C=C(C)C(=O)O[C@H]1C[C@@]2(C)OC(=CC2=O)/C(CO)=C\[C@H]2OC(=O)C(=C)[C@H]12` [GOIAZENSOLIDE], the Activity entry in series [4] is “Non-Toxic”. Also, the outcome in series [7], in [12] and in [13] was Active.

Turning to `C#CCCC(=O)OCC1=C(C)CC([C@@H](C)[C@H]2CC[C@H]3[C@@H]4C[C@H]5O[C@]56[C@@H](O)C=CC(=O)[C@]6(C)[C@H]4CC[C@]23C)OC1=O` (stereo partly drawn), the Activity result in series [4] is “Non-Toxic”. The outcome in series [9], in series [12] and in series [15] was Active.

Regarding `COC(=O)[C@]12CCC(C)(C)C[C@@H]1[C@H]1C(=O)C=C3[C@@]4(C)C=C(C#N)C(=O)C(C)(C)[C@@H]4CC[C@@]3(C)[C@]1(C)CC2`, the outcome in series [5] and in [12] was Active.

As to `C#CCCC(=O)O[C@H]1C=CC(=O)[C@]2(C)[C@H]3CC[C@]4(C)[C@@H]([C@H](C)C5CC(C)=C(CO)C(=O)O5)CC[C@H]4[C@@H]3C[C@H]3O[C@]132` (stereo partly drawn), the Activity entry in [4] was “Non-Toxic”. The outcome in [9], in [12] and in series [15] was Active.
